≈ marks a conversion by molar mass, not a printed value. Non-standard residues stand in square brackets, D forms with d. Residues, ends and D or L forms follow the SMILES beside them. Orn = NCCC[C@H](N)C(=O)O; Dab = NCC[C@H](N)C(=O)O
What was measured:
P. aeruginosa PAO1 GFP [1] = experiment: MBEC, biofilm eradication, GFP fluorescence method; format: cell-based, Pseudomonas aeruginosa
Description: (§1) Figure 1 The MIC (A), MBIC (B) and MBEC (C) values for the tritrpticin analog peptides were assessed against Pa PAO1 GFP. The MIC values were determined by measuring the absorbance of bacterial cells at 600 nm. The MBIC and MBEC values were determined by recording the fluorescence at 480 nm and 530 nm from the biofilms of GFP-expressing PAO1. Three biological replicates were run for each test sample, and the mean was calculated for the recorded absorption or fluorescence values. In the graphs, the error bars represent the standard deviation (±SD).
(§2) Figure 2 The MIC (A), MBIC (B) and MBEC (C) values for the tritrpticin-Lys derivative peptides were assessed against Pa PAO1 GFP. The MIC values were determined by measuring the absorbance of bacterial cells at 600 nm. The MBIC and MBEC values were determined by recording the fluorescence at 480 nm and 530 nm from the biofilms of GFP-expressing PAO1. Three replicates were run for each sample, the values were averaged and the error bars represent the standard deviation (±SD).
(§3) The methods to determine the MIC, MBIC and MBEC have been described in detail in our previous publication. The green fluorescent protein (GFP)-producing P. aeruginosa and S. aureus strains that were used in this work were also described in the earlier publication. Fluorescence detection was used as the main method to estimate the number of cells entrapped in the biofilm matrix. The methodology used for evaluation of the antibiofilm properties against an original Pseudomonas PA01 strain by crystal violet dye staining and the use of the Calgary biofilm device has been described elsewhere. The regular PA01 strain was provided by Dr. J. Harrison, Calgary. All measurements were carried out on an Eppendorf AF2200 plate reader. Every 96-well plate included controls for bacterial cell growth without peptide treatment and media alone. All measurements were carried out in triplicate, and the values in the figures represent the average and the error bars are standard deviation.

S. aureus GFP [2] = format: cell-based, Staphylococcus aureus; conditions: Table 4; Sa GFP; lowest concentration of peptide with no bacterial growth seen on the spot agar plate
Description: as §3

S. aureus GFP [3] = experiment: MIC against planktonic cells, absorbance at 600 nm; format: cell-based, Staphylococcus aureus; conditions: Table 4; Sa GFP, 10% TSB and 0.1% glucose; absorbance 600 nm; mean of three biological replicates
Description: as §1, with “3” for “1”, “Sa” for “Pa PAO1”, “Sa.” for “PAO1.”
as §3

P. aeruginosa PAO1 GFP [4] = experiment: MIC against planktonic cells, absorbance at 600 nm; format: cell-based, Pseudomonas aeruginosa; conditions: absorbance 600 nm
Description: as §1, §2, §3

P. aeruginosa PAO1 GFP [5] = experiment: MBIC, prevention of biofilm formation, GFP fluorescence method; format: cell-based, Pseudomonas aeruginosa
Description: as §1, §2, §3

S. aureus GFP [6] = experiment: MBEC, GFP fluorescence method; format: cell-based, Staphylococcus aureus; conditions: Table 4, Sa GFP, 10% TSB and 0.1% glucose, mean of three biological replicates
Description: as §1, with “3” for “1”, “Sa” for “Pa PAO1”, “Sa.” for “PAO1.”
as §3

S. aureus GFP [7] = experiment: MBIC, GFP fluorescence method; format: cell-based, Staphylococcus aureus; conditions: Table 4, Sa GFP, 10% TSB and 0.1% glucose, mean of three biological replicates
Description: as §1, with “3” for “1”, “Sa” for “Pa PAO1”, “Sa.” for “PAO1.”
as §3

P. aeruginosa PAO1 [8] = format: cell-based, Pseudomonas aeruginosa; conditions: Table 6, Tritrp-Lys derivatives; PAO1, BM2; absorbance 600 nm; three replicates; unit not given
Description: (§4) Figure 4 The MIC (A), MBIC (B) and MBRC (C) values for the peptides were assessed against P. aeruginosa PAO1 in the presence of 1× BM2. The inhibition of planktonic cells, the inhibition of biofilm cells and the reduction in biofilm cells were determined for the peptides by recording of the planktonic cells at 600 nm and quantification of biofilms formed by Pa PAO1 using crystal violet at 595 nm, respectively. Three biological replicates were run for each test sample, and the mean was calculated for the recorded absorption values. Data points with error bars indicate the standard deviation (±SD).
(§5) Figure 6 The MIC (A), MBIC (B) and MBEC (C) values for the tritrpticin-Lys derivatives against P. aeruginosa PAO1 were assessed by the crystal violet (CV) assay for the measurement of inhibition of biofilm formation and eradication of biofilm cells, respectively. The biofilm cells were rinsed, stained with 0.1% crystal violet for 15 min and then rinsed again. The CV was released from biofilm cells by the addition of 95% ethanol and quantified by reading on a spectrometer at 595 nm. Three replicates were run for each sample, the values were averaged and the error bars represent the standard deviation (±SD).
as §3

P. aeruginosa PAO1 [9] = format: cell-based; conditions: Table 6, Tritrp-Lys derivatives; PAO1, BM2; 0.1% crystal violet 15 min, released with 95% ethanol, 595 nm; three replicates; unit not given
Description: We note the close agreement with the MBIC and MBEC values determined by the fluorescence and CV methods, similar to what we found in our previous work for an S. aureus MRSA strain [23]. We also re-evaluated the MBEC values that are measured using the Calgary biofilm device (CBD), where biofilms form on pegs, rather than at the bottom of the 96-well plates. […] In particular, we find that the single Pro9Ala Tritrp-P9A-substituted version has better MIC, MBIC and MBEC activities than the parent peptide as well as the Tritrp-P59A analog with both prolines substituted to Ala.
as §4, §5, §3

[10] = Table 2, BM2 medium, mean of three biological replicates
[11] = Table 3, Tritrp-Lys derivatives, BM2 medium, three replicates

SMILES | MBEC at 488 and 530 nm LD50 (P. aeruginosa PAO1 GFP [1]; [11]) | MBEC at 488 and 530 nm LD90 (P. aeruginosa PAO1 GFP [1]; [11]) | MIC at 600 nm LD50 (P. aeruginosa PAO1 GFP [4]; [11]) | MIC at 600 nm LD90 (P. aeruginosa PAO1 GFP [4]; [11]) | MBIC at 488 and 530 nm LD50 (P. aeruginosa PAO1 GFP [5]; [11]) | MBIC at 488 and 530 nm LD90 (P. aeruginosa PAO1 GFP [5]; [11]) | MIC at 600 nm LD50 (P. aeruginosa PAO1 [8]) | MIC at 600 nm LD90 (P. aeruginosa PAO1 [8]) | MBEC (CV at 595 nm) LD90 (P. aeruginosa PAO1 [9]) | MBIC (CV at 595 nm) LD90 (P. aeruginosa PAO1 [9]) | other results
N=C(N)NCCC[C@H](NC(=O)[C@H](Cc1c[nH]c2ccccc12)NC(=O)[C@H](Cc1c[nH]c2ccccc12)NC(=O)[C@H](Cc1c[nH]c2ccccc12)NC(=O)[C@H](CCCNC(=N)N)NC(=O)[C@@H](N)CCCNC(=N)N)C(N)=O [RRWWWR-NH2] (H-RRWWWR-NH2) | – | – | – | – | – | – | – | – | – | – | MBEC at 488 and 530 nm LD50 (P. aeruginosa PAO1 GFP [1]; [10]): 128 µmol/L; MBEC at 488 and 530 nm LD90 (P. aeruginosa PAO1 GFP [1]; [10]): >128 µmol/L; MBC Agar Plate (S. aureus GFP [2]): 4 µmol/L (≈ 4.18 µg/mL); MIC at 600 nm LD50 (S. aureus GFP [3]): 1 µmol/L (≈ 1.04 µg/mL); MIC at 600 nm LD90 (S. aureus GFP [3]): 1 µmol/L (≈ 1.04 µg/mL); MIC at 600 nm LD50 (P. aeruginosa PAO1 GFP [4]; [10]): 64 µmol/L (≈ 66.8 µg/mL); MIC at 600 nm LD90 (P. aeruginosa PAO1 GFP [4]; [10]): 128 µmol/L (≈ 134 µg/mL); MBIC at 488 and 530 nm LD50 (P. aeruginosa PAO1 GFP [5]; [10]): 16 µmol/L; MBIC at 488 and 530 nm LD90 (P. aeruginosa PAO1 GFP [5]; [10]): 128 µmol/L; MBEC at 488 and 530 nm LD50 (S. aureus GFP [6]): 1 µmol/L; MBEC at 488 and 530 nm LD90 (S. aureus GFP [6]): 4 µmol/L; MBIC at 488 and 530 nm LD50 (S. aureus GFP [7]): 1 µmol/L; MBIC at 488 and 530 nm LD90 (S. aureus GFP [7]): 1 µmol/L
CC(C)C[C@H](NC(=O)[C@H](Cc1ccccc1)NC(=O)[C@@H]1CCCN1C(=O)[C@H](Cc1c[nH]c2ccccc12)NC(=O)[C@H](Cc1c[nH]c2ccccc12)NC(=O)[C@H](Cc1c[nH]c2ccccc12)NC(=O)[C@@H]1CCCN1C(=O)[C@H](Cc1ccccc1)NC(=O)[C@H](CCN)NC(=O)[C@H](CCN)NC(=O)[C@@H](N)C(C)C)C(=O)N[C@@H](CCN)C(=O)N[C@@H](CCN)C(N)=O [Tritrp-Dab] (H-V[Dab][Dab]FPWWWPFL[Dab][Dab]-NH2; N-terminus assumed) | 16 µmol/L | 64 µmol/L | 8 µmol/L (≈ 13.4 µg/mL) | 16 µmol/L (≈ 26.8 µg/mL) | 8 µmol/L | 16 µmol/L | 16 | 16 | 64 | 16 | –
CC(C)C[C@H](NC(=O)[C@H](Cc1ccccc1)NC(=O)[C@@H]1CCCN1C(=O)[C@H](Cc1c[nH]c2ccccc12)NC(=O)[C@H](Cc1c[nH]c2ccccc12)NC(=O)[C@H](Cc1c[nH]c2ccccc12)NC(=O)[C@@H]1CCCN1C(=O)[C@H](Cc1ccccc1)NC(=O)[C@H](CCCN)NC(=O)[C@H](CCCN)NC(=O)[C@@H](N)C(C)C)C(=O)N[C@@H](CCCN)C(=O)N[C@@H](CCCN)C(N)=O [Tritrp-Orn] (H-V[Orn][Orn]FPWWWPFL[Orn][Orn]-NH2; N-terminus assumed) | 64 µmol/L | 128 µmol/L | 16 µmol/L (≈ 27.7 µg/mL) | 16 µmol/L (≈ 27.7 µg/mL) | 16 µmol/L | 16 µmol/L | 16 | 16 | 128 | 32 | –

From paper PMC11858513, “Antibiofilm Activities of Tritrpticin Analogs Against Pathogenic Pseudomonas aeruginosa PA01 Strains” (Molecules, 2025)
